Here are results for 16 molecules from ChEMBL document CHEMBL4033735, “A potent and selective natriuretic peptide receptor-3 blocker 11-mer peptide created by hybridization of musclin and atrial natriuretic peptide” (Bioorg Med Chem Lett, 2017).

In test [1] the target is T1, Atrial natriuretic peptide receptor 1 (Homo sapiens, UniProt P16066).
T1 sequence (P16066 whole entry): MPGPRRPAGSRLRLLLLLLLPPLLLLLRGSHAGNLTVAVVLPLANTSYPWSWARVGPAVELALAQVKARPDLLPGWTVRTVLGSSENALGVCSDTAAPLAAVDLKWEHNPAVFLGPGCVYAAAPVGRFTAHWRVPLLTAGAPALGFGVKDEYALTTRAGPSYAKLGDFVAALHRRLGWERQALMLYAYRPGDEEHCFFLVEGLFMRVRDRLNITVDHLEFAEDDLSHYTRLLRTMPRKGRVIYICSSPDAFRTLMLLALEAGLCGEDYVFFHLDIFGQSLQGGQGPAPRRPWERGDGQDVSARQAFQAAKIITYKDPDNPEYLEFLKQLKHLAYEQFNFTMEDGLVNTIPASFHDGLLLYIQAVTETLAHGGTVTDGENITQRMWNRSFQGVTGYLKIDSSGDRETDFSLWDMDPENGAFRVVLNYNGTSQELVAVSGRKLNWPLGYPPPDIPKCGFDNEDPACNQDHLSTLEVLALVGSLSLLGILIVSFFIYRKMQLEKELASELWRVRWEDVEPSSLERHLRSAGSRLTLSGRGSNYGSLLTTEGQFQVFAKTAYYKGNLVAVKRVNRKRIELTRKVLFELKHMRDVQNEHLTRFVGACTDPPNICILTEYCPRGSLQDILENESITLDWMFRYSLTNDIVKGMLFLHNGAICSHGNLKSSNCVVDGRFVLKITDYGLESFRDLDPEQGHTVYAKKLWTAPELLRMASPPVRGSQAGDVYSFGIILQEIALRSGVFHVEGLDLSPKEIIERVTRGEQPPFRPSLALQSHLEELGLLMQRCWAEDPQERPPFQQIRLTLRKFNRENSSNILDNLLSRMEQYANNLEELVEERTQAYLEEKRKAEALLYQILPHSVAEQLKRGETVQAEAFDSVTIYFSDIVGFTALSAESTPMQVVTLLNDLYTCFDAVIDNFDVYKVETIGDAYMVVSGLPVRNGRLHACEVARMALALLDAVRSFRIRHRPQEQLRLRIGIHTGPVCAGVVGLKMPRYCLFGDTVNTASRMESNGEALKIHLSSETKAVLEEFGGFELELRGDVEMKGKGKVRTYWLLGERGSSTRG
The test is described as follows: Displacement of [125I]-human ANP from human NPR-1 incubated for 2 hrs by top count method. (In general: Loss of bound radioactivity is the signal in a displacement assay; it reports binding, not function.)

Test [2] has as its target T2, Atrial natriuretic peptide receptor 3 (Homo sapiens, UniProt P17342).
T2 sequence (P17342 whole entry): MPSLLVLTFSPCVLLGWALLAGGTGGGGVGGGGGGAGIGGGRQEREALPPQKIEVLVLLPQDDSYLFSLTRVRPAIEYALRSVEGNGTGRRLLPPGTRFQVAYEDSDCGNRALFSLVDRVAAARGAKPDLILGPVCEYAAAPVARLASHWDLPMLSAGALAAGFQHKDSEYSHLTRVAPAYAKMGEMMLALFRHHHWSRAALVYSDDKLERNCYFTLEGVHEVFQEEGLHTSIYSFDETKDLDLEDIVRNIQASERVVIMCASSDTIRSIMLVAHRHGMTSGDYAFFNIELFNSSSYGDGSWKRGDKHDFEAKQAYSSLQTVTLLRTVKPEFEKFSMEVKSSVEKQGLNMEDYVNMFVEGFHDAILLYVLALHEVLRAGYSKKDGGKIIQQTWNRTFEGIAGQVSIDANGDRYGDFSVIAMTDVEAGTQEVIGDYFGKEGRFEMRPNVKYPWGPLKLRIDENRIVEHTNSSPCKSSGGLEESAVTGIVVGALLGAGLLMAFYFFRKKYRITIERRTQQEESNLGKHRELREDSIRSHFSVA
The test is described as follows: Displacement of [125I]-human ANP from His-tagged and Fc fragment containing human NPR-3 extracellular domain expressed in FreeStyle 293 cells incubated for 2 hrs by top count method. It counts as cell-based.

As usually defined, the IC50 is the point on the concentration scale where inhibition reaches its midpoint. Read a low IC50 as greater potency.

Square brackets hold non-standard residues; d marks the D form. Peptide text beside a SMILES is read from it. Cha = N[C@@H](CC1CCCCC1)C(=O)O Some results are limits rather than exact numbers.

Take `CC[C@H](C)[C@H](NC(=O)[C@H](CCCNC(=N)N)NC(=O)[C@H](CC(=O)O)NC(=O)[C@@H](NC(=O)[C@H](CCCNC(=N)N)NC(=O)CNC(=O)CNC(=O)[C@H](CC1CCCCC1)NC(C)=O)[C@@H](C)CC)C(=O)NCC(N)=O` (Ac-[Cha]GGRIDRIG-NH2): the IC50 in test [1] was over 1000 nM; in test [2], 54 nM. In turn, `CC[C@H](C)[C@H](NC(=O)[C@H](CCCNC(=N)N)NC(=O)[C@H](CC(=O)O)NC(=O)[C@@H](NC(=O)[C@H](CCCNC(=N)N)NC(=O)CNC(=O)CNC(=O)[C@H](Cc1ccccc1)NC(=O)[C@H](CS)NC(=O)[C@H](CO)NC(=O)[C@H](CO)NC(=O)[C@@H](N)CCCNC(=N)N)[C@@H](C)CC)C(=O)NCC(=O)N[C@@H](C)C(=O)N[C@@H](CS)C(=O)O` (H-RSSCFGGRIDRIGAC-OH) showed a concentration for half-maximal inhibition (IC50) in test [2] of 0.65 nM. `CC[C@H](C)[C@H](NC(=O)[C@H](CCCNC(=N)N)NC(=O)[C@H](CC(=O)O)NC(=O)[C@@H](NC(=O)[C@H](CCCNC(=N)N)NC(=O)CNC(=O)CNC(=O)[C@H](CC1CCCCC1)NC(=O)CNC(=O)[C@@H](N)CO)[C@@H](C)CC)C(=O)NCC(N)=O` (H-SG[Cha]GGRIDRIG-NH2): the IC50 in test [1] is over 1000 nM; in test [2], 22 nM. The like results for `CC[C@H](C)[C@H](NC(=O)[C@H](CCCNC(=N)N)NC(=O)[C@H](CC(=O)O)NC(=O)[C@@H](NC(=O)[C@H](CCCNC(=N)N)NC(=O)CNC(=O)CNC(=O)[C@H](CC1CCCCC1)NC(=O)[C@@H](N)CS)[C@@H](C)CC)C(=O)NCC(N)=O` (H-C[Cha]GGRIDRIG-NH2) were, in that order, 120 nM and 1.5 nM. As for `CC[C@H](C)[C@H](NC(=O)[C@H](CCCNC(=N)N)NC(=O)[C@H](CC(=O)O)NC(=O)[C@@H](NC(=O)[C@H](CCCNC(=N)N)NC(=O)CNC(=O)CNC(=O)[C@H](CC1CCCCC1)NC(=O)[C@@H](N)CO)[C@@H](C)CC)C(=O)NCC(N)=O` (H-S[Cha]GGRIDRIG-NH2), the IC50 was over 1000 nM in test [1] and 15 nM in test [2]. In the same order, the values of `CC[C@H](C)[C@H](NC(=O)[C@H](CCCNC(=N)N)NC(=O)[C@H](CC(=O)O)NC(=O)[C@@H](NC(=O)[C@H](CCCNC(=N)N)NC(=O)CNC(=O)CNC(=O)[C@H](CC1CCCCC1)NC(=O)CNC(=O)[C@H](CO)NC(=O)[C@H](CO)NC(=O)[C@@H](N)CCCNC(=N)N)[C@@H](C)CC)C(=O)NCC(N)=O` (H-RSSG[Cha]GGRIDRIG-NH2) are over 1000 nM and 7.8 nM. On to `CC[C@H](C)[C@@H]1NC(=O)[C@H](CCCNC(=N)N)NC(=O)[C@H](CC(=O)O)NC(=O)[C@H](CCSC)NC(=O)[C@H](CCCNC(=N)N)NC(=O)CNC(=O)CNC(=O)[C@H](Cc2ccccc2)NC(=O)[C@@H](NC(=O)[C@H](CO)NC(=O)[C@H](CO)NC(=O)[C@H](CCCNC(=N)N)NC(=O)[C@H](CCCNC(=N)N)NC(=O)[C@H](CC(C)C)NC(=O)[C@@H](N)CO)CSSC[C@@H](C(=O)N[C@@H](CC(N)=O)C(=O)N[C@@H](CO)C(=O)N[C@@H](Cc2ccccc2)C(=O)N[C@@H](CCCNC(=N)N)C(=O)N[C@@H](Cc2ccc(O)cc2)C(=O)O)NCC(=O)NC(=O)[C@H](CC(C)C)NC(=O)CNC(=O)[C@H](CO)NC(=O)[C@H](CCC(N)=O)NC(=O)[C@H](C)NC(=O)CNC1=O`, for which the results for the 50% inhibitory concentration (IC50) in test [1] and in test [2] were 0.094 nM and 0.058 nM, respectively. Regarding `CC[C@H](C)[C@H](NC(=O)[C@H](CCCNC(=N)N)NC(=O)[C@H](CC(=O)O)NC(=O)[C@@H](NC(=O)[C@H](CCCNC(=N)N)NC(=O)CNC(=O)CNC(=O)[C@H](CC1CCCCC1)NC(=O)CNC(=O)[C@H](CO)NC(=O)[C@H](Cc1ccccc1)NC(=O)[C@@H](N)CO)[C@@H](C)CC)C(=O)NCC(N)=O` (H-SFSG[Cha]GGRIDRIG-NH2), the IC50 in test [1] was over 1000 nM; in test [2] it was 0.52 nM. Take `CC[C@H](C)[C@H](NC(=O)[C@H](CCCNC(=N)N)NC(=O)[C@H](CC(=O)O)NC(=O)[C@@H](NC(=O)[C@H](CCCNC(=N)N)NC(=O)CNC(=O)CNC(=O)[C@H](CC1CCCCC1)NC(=O)[C@H](CS)NC(C)=O)[C@@H](C)CC)C(=O)NCC(N)=O` (Ac-C[Cha]GGRIDRIG-NH2): the half-inhibitory concentration (IC50) is over 1000 nM in test [1] and 35 nM in test [2]. Consider `CC[C@H](C)[C@H](NC(=O)[C@H](CCCNC(=N)N)NC(=O)[C@H](CC(=O)O)NC(=O)[C@@H](NC(=O)[C@H](CCCNC(=N)N)NC(=O)CNC(=O)CNC(=O)[C@H](CC1CCCCC1)NC(=O)CNC(=O)[C@H](CO)NC(=O)[C@@H](Cc1ccccc1)NC(C)=O)[C@@H](C)CC)C(=O)NCC(N)=O`, for which the IC50 was over 1000 nM in test [1] and 0.93 nM in test [2]. In the case of `CC[C@H](C)[C@H](NC(=O)[C@H](CCCNC(=N)N)NC(=O)[C@H](CC(=O)O)NC(=O)[C@@H](NC(=O)[C@@H]1CCCN1C(=O)CNC(=O)CNC(=O)[C@H](CC1CCCCC1)NC(=O)CNC(=O)[C@H](CO)NC(=O)[C@H](N)Cc1ccccc1)[C@@H](C)CC)C(=O)NCC(N)=O`, the half-maximal inhibitory concentration (IC50) is over 1000 nM in test [1] and 0.12 nM in test [2]. The like results for `CC[C@H](C)[C@H](NC(=O)[C@H](CCCNC(=N)N)NC(=O)[C@H](CC(=O)O)NC(=O)[C@@H](NC(=O)[C@H](CCCNC(=N)N)NC(=O)CNC(=O)CNC(=O)[C@H](CC1CCCCC1)NC(=O)[C@H](C)N)[C@@H](C)CC)C(=O)NCC(N)=O` (H-A[Cha]GGRIDRIG-NH2) were, in that order, over 1000 nM and 13 nM. In the same order, the values of `CC[C@H](C)[C@H](NC(=O)[C@H](CCCNC(=N)N)NC(=O)[C@H](CC(=O)O)NC(=O)[C@@H](NC(=O)[C@@H]1CCCN1C(=O)CNC(=O)[C@@H](C)NC(=O)[C@H](CC1CCCCC1)NC(=O)[C@H]1CCCN1C(=O)[C@H](CO)NC(=O)[C@@H](Cc1ccccc1)NC(C)=O)[C@@H](C)CC)C(=O)NCC(N)=O` are over 1000 nM and 0.19 nM. In the same order, the values of `CC[C@H](C)[C@H](NC(=O)[C@H](CCCNC(=N)N)NC(=O)[C@H](CC(=O)O)NC(=O)[C@@H](NC(=O)[C@H](CCCNC(=N)N)NC(=O)CNC(=O)CNC(=O)[C@H](CC1CCCCC1)NC(=O)CN)[C@@H](C)CC)C(=O)NCC(N)=O` (H-G[Cha]GGRIDRIG-NH2) are over 1000 nM and 13 nM.

On to `CC[C@H](C)[C@H](NC(=O)[C@H](CCCNC(=N)N)NC(=O)[C@H](CC(=O)O)NC(=O)[C@@H](NC(=O)[C@H](CCCNC(=N)N)NC(=O)CNC(=O)[C@@H](C)NC(=O)[C@H](CC1CCCCC1)NC(=O)CNC(=O)[C@H](CO)NC(=O)[C@H](N)Cc1ccccc1)[C@@H](C)CC)C(=O)NCC(N)=O`, for which the IC50 is over 1000 nM in test [1] and 0.36 nM in test [2].

On to `CC[C@H](C)[C@H](NC(=O)[C@H](CCCNC(=N)N)NC(=O)[C@H](CC(=O)O)NC(=O)[C@@H](NC(=O)[C@H](CCCNC(=N)N)NC(=O)CNC(=O)CNC(=O)[C@@H](N)CC1CCCCC1)[C@@H](C)CC)C(=O)NCC(N)=O` (H-[Cha]GGRIDRIG-NH2), for which the IC50 is over 1000 nM in test [1] and 11 nM in test [2].
